Earlier results, collected in patent publication US10898467B2, “Veterinary formulations” (BOEHRINGER INGELHEIM ANIMAL HEALTH USA INC., priority 2015, dated 2021).

Details: beagle dogs, spot-on, 14C radiolabeled drug

## N#Cc1nn(-c2c(Cl)cc(C(F)(F)F)cc2Cl)c(N)c1[S+]([O-])C(F)(F)F (stereo not shown) [fipronil, 1-(2,6-Cl2-4-CF3phenyl)-3-CN-4-(SO—CF3)-5-NH2pyrazole]
  Time for which fipronil was persistently detected in the whole skin after treatment: up to 56 days
